Experimental findings from patent US4005100A, “Pyrazole-5-carboxamides” (Hoffmann-La Roche Inc., priority 1972, dated 1977) are described below.

Where “and” joins values, the source holds several entries; their conditions need not be identical. Equal values may be shown once.

In series [1] the test system is streptozotocin-diabetic rats. In words: glucose level (in % of controls) upon oral administration to streptozotocin-diabetic rats. The series is classed as in vivo, rat (Female Albino-rats). Here is the method:
(§1) A compound encompassed by the formula I, namely, 3-methyl-N-(5-methyl-3,3-diphenyl-pyrrolin-2-yl)pyrazole-5-carboxamide, upon oral administration to maximal streptozotocin-diabetic rats gave the following values for the glucose and fatty acid levels (in % of controls):
(§2) The test procedure was that described by E. LORCH in Diabetologia 7, 195-203 (1971).
(§3) Female (140-160 gr) Albino-rats were starved (24 hrs) and refed (16 hrs) one week after Streptozotocin administration (60 mg/kg s.c.). Mean plasma glucose values: 500-600 mg/100 ml plasma. Diabetic starved-refed control animals received the suspension vehicle alone.

Series [2] concerns streptozotocin-diabetic rats. In words: free fatty acid level (in % of controls) upon oral administration to streptozotocin-diabetic rats. The series is classed as in vivo, rat (Female Albino-rats). Here is the method: as §1, §2, §3
Series [3] in a line: DL50 in the rat, single oral application. Conditions: in vivo, observation period 10 days. The text has this:
The DL50 in the rat amounts to 8 g/kg (single oral application: observation period 10 days).

Where [4] appears, read: 100 μmol/kg oral, 4 hours after application.
[5] abbreviates: 300 μmol/kg oral, 2 hours after application.
The mark [6] stands for this setting: 300 μmol/kg oral, 6 hours after application.
The mark [7] stands for this setting: 1000 μmol/kg oral, 4 hours after application.

`Cc1cc(C(=O)NC2=NC(C)CC2(c2ccccc2)c2ccccc2)[nH]n1` (stereo not drawn) [3-methyl-N-(5-methyl-3,3-diphenyl-1-pyrrolin-2-yl)-pyrazole-5-carboxamide]: the Glucose in series [1] (100 μmol/kg oral, 2 hours after application) was 70 % of controls; in series [1] (setting [4]), 80 % of controls and 96 % of controls and 50 % of controls; in series [1] (100 μmol/kg oral, 6 hours after application) it was 60 % of controls; in series [1] (setting [5]) it was 76 % of controls and 70 % of controls; in series [1] (setting [6]), 71 % of controls and 59 % of controls; in series [1] (setting [7]), 89 % of controls and 80 % of controls. Moreover, the Free fatty acids in series [2] (setting [4]) is 56 % of controls; in series [2] (setting [5]) it was 59 % of controls; in series [2] (300 μmol/kg oral, 4 hours after application), 72 % of controls and 62 % of controls; in series [2] (setting [6]) it was 50 % of controls; in series [2] (setting [7]), 57 % of controls. The LD50 at 240 h in series [3] was 8000 mg/kg.

One may read the LD50 as the dose expected to kill half of the subjects tested.
